Earlier results as cited in patent publication US20060292225A1, “WATER SOLUBLE ANALGESIC FORMULATIONS AND METHODS FOR PRODUCTION” (priority 2005, published 2006).
Where two headings read alike, the source gives them in different places.

What was measured:
[1] = tested on: arthritis inflammation
[2] = aqueous, hydrolysis

## CC(=O)Oc1ccccc1C(=O)O [aspirin, Acetylsalicylic acid]
[1]; daily dosage 2500 mg
  rate of successful treatment: less than 10%
[1]; daily dosages of 4,000 to 5,000 mg or greater
  rate of successful treatment: over 70%
Higher anti-inflammatory dosages
  incidence of side effects (nausea, gastric upset, pain): about 25%
Low analgesic dose levels, adult users
  incidence of side effects (nausea, gastric upset, pain): 2-10%
[2]
  pH of maximum stability: 2.4
